The source of these data is patent US7151195B2, “Phthalamide derivative, agricultural or horticultural insecticide, and method of use thereof” (Bayer CropScience LP, priority 2002, dated 2006).

Common to all, as to type: in vivo
In data set [1] the test system is Common Cutworm (Spodoptera litura). The data set can be described thus: Insecticidal test on common cutworm (Test Example 2). Particulars: cabbage leaf immersed about 30 seconds, second-instar larvae, counted eight days after inoculation, 25° C.; for Test Example 2: insecticidal effect (mortality criterion): 50 ppm; for mortality at 50 ppm: Spodoptera litura, 192 h, read-out: Test Example 2: insecticidal effect (mortality criterion). The protocol:
A piece of cabbage leaf (cultivar; Shikidori) was immersed for about 30 seconds in a liquid chemical prepared by diluting a preparation containing each compound listed in Tables 1 to 3 as an active ingredient to adjust the concentration to 50 ppm. After air-dryness, it was placed in a plastic Petri dish with a diameter of 9 cm and inoculated with second-instar larvae of common cutworm, after which the dish was closed and then allowed to stand in a room thermostatted at 25° C. Eight days after the inoculation, the dead and alive were counted. The mortality was calculated according to the following equation and the insecticidal effect was judged according to the criterion shown in Test Example 1. The test was carried out with triplicate groups of 10 insects.

Data set [2] deals with Diamond Back Moth (Plutella xylostella). The data set can be described thus: Insecticidal test on diamond back moth (Test Example 1). The following applies: Chinese cabbage seedling with eggs immersed about 30 seconds, hatched insects counted six days after immersion, 25° C.; for Test Example 1: insecticidal effect (mortality criterion): 50 ppm; for mortality at 50 ppm: Plutella xylostella, 144 h, read-out: Test Example 1: insecticidal effect (mortality criterion). As for the experimental part:
Adult diamond back moths were released and allowed to oviposit on a Chinese cabbage seedling. Two days after the release, the seedling having the eggs deposited thereon was immersed for about 30 seconds in a liquid chemical prepared by diluting a preparation containing each compound listed in Tables 1 to 3 as an active ingredient to adjust the concentration to 50 ppm. After air-dryness, it was allowed to stand in a room thermostatted at 25° C. Six days after the immersion, the hatched insects were counted. The mortality was calculated according to the following equation and the insecticidal effect was judged according to the criterion shown below. The test was carried out with triplicate groups of 10 insects.

The test system of data set [3] is Smaller Tea Tortrix (Adoxophyes sp.). The data set can be described thus: Insecticidal test on smaller tea tortrix (Test Example 3). Particulars: 50 ppm; tea leaves immersed about 30 seconds; larvae; counted eight days after inoculation; 25° C., humidity 70%. As for the experimental part:
Tea leaves were immersed for about 30 seconds in a liquid chemical prepared by diluting a preparation containing each compound listed in Tables 1 to 3 as an active ingredient to adjust the concentration to 50 ppm. After air-dryness, the tea leaves were placed in a plastic Petri dish with a diameter of 9 cm and inoculated with larvae of smaller tea tortrix, after which the dish was allowed to stand in a room thermostatted at 25° C. and having a humidity of 70%. Eight days after the inoculation, the dead and alive larvae were counted and, the mortality was calculated according to the equation shown in Test Example 2, and the insecticidal effect was judged according to the criterion shown in Test Example 1. The test was carried out with triplicate groups of 10 insects.

Broadly, the mortality is the percentage killed.

With `CSCC(C)(C)NC(=O)c1c(I)cccc1C(=O)Nc1cccc(S(F)(F)(F)(F)F)c1` [3-5], the “Test Example 2: insecticidal effect (mortality criterion)” value (“Test Example 2: insecticidal effect” below) in data set [1] was “E (Mortality 49% or less)”. Besides, the “Test Example 1: insecticidal effect (mortality criterion)” value (from here on “Test Example 1: insecticidal effect”) in data set [2] is “A (Mortality 100%)”. Also, the “Test Example 3: insecticidal effect (mortality criterion)” value (shortened to “Test Example 3: insecticidal effect”) in data set [3] is on record as “A (Mortality 100%)”.
`CSCC(C)(C)NC(=O)c1c(I)cccc1C(=O)Nc1ccc(S(F)(F)(F)(F)F)cc1Cl` [1-372, N^1-(2-chloro-4-pentafluorosulfanylphenyl)-N^2-(1,1-dimethyl-2-methylthioethyl)-3-iodophthalamide]: the mortality at 50 ppm in data set [1] and in data set [2] was 100% throughout. In data set [3], the “Test Example 3: insecticidal effect” value is on record as “A (Mortality 100%)”.
In the case of `Cc1cc(S(F)(F)(F)(F)F)ccc1NC(=O)c1cccc(I)c1C(=O)NC(C)CS(C)(=O)=O` (stereo not drawn) [1-292], the “Test Example 2: insecticidal effect” value in data set [1] was “A (Mortality 100%)”. Besides, in data set [2], the “Test Example 1: insecticidal effect” value is reported as “A (Mortality 100%)”. Besides, the “Test Example 3: insecticidal effect” value in data set [3] was “A (Mortality 100%)”.
Regarding `CC(C)(CS(C)(=O)=O)NC(=O)c1c(I)cccc1C(=O)Nc1cccc(S(F)(F)(F)(F)F)c1Cl` [3-26], the “Test Example 2: insecticidal effect” value in data set [1] is on record as “A (Mortality 100%)”. Further, the “Test Example 1: insecticidal effect” value in data set [2] is “A (Mortality 100%)”. Also, the “Test Example 3: insecticidal effect” value in data set [3] is recorded as “A (Mortality 100%)”.
As to `Cc1cc(S(F)(F)(F)(F)F)ccc1NC(=O)c1cccc(I)c1C(=O)NC(C)(C)C[S+](C)[O-]` (stereo not drawn) [1-297], the “Test Example 2: insecticidal effect” value in data set [1] was “A (Mortality 100%)”. Also, the “Test Example 1: insecticidal effect” value in data set [2] was “A (Mortality 100%)”. Further, the “Test Example 3: insecticidal effect” value in data set [3] is given as “A (Mortality 100%)”.
For `CSCC(C)(C)NC(=O)c1c(I)cccc1C(=O)Nc1ccc(S(F)(F)(F)(F)F)cc1` [1-458], the “Test Example 2: insecticidal effect” value in data set [1] is “A (Mortality 100%)”. The “Test Example 1: insecticidal effect” value in data set [2] is reported as “A (Mortality 100%)”. The “Test Example 3: insecticidal effect” value in data set [3] is reported as “A (Mortality 100%)”.
On to `Cc1cc(S(F)(F)(F)(F)F)ccc1NC(=O)c1cccc(I)c1C(=O)NC(C)(C)CS(C)(=O)=O` [1-298], for which, in data set [1], the “Test Example 2: insecticidal effect” value is “A (Mortality 100%)”. The “Test Example 1: insecticidal effect” value in data set [2] is “A (Mortality 100%)”. The “Test Example 3: insecticidal effect” value in data set [3] is recorded as “A (Mortality 100%)”.
On to `CC(C)(CS(C)(=O)=O)NC(=O)c1c(I)cccc1C(=O)Nc1cccc(S(F)(F)(F)(F)F)c1` [3-7], for which the “Test Example 2: insecticidal effect” value in data set [1] is reported as “A (Mortality 100%)”. Further, the “Test Example 1: insecticidal effect” value in data set [2] is “A (Mortality 100%)”. Further, the “Test Example 3: insecticidal effect” value in data set [3] is reported as “A (Mortality 100%)”.
As for `CCN(C(=O)c1cccc(I)c1C(=O)NC(C)(C)C[S+](C)[O-])c1ccc(S(F)(F)(F)(F)F)cc1` (stereo not drawn) [2-23], in data set [1], the “Test Example 2: insecticidal effect” value is recorded as “A (Mortality 100%)”. Besides, in data set [2], the “Test Example 1: insecticidal effect” value is recorded as “A (Mortality 100%)”. The “Test Example 3: insecticidal effect” value in data set [3] is “E (Mortality 49% or less)”.
As for `C[S+]([O-])CC(C)(C)NC(=O)c1c(I)cccc1C(=O)Nc1cccc(S(F)(F)(F)(F)F)c1` (stereo not drawn) [3-6], the “Test Example 2: insecticidal effect” value in data set [1] is given as “D (Mortality 79–50%)”. Further, in data set [2], the “Test Example 1: insecticidal effect” value was “A (Mortality 100%)”. In addition, the “Test Example 3: insecticidal effect” value in data set [3] is “E (Mortality 49% or less)”.
For `CSCC(C)(C)NC(=O)c1c(I)cccc1C(=O)Nc1ccc(S(F)(F)(F)(F)F)cc1C` [1-296], in data set [1], the “Test Example 2: insecticidal effect” value is on record as “A (Mortality 100%)”. In addition, the “Test Example 1: insecticidal effect” value in data set [2] is “A (Mortality 100%)”. The “Test Example 3: insecticidal effect” value in data set [3] is recorded as “A (Mortality 100%)”.
Take `CC(C)(CS(C)(=O)=O)NC(=O)c1c(I)cccc1C(=O)Nc1ccc(S(F)(F)(F)(F)F)cc1Cl` [1-374, N^1-(2-chloro-4-pentafluorosulfanylphenyl)-N^2-(1,1-dimethyl-2-methylsulfonylethyl)-3-iodophthalamide]: the mortality at 50 ppm in data set [1] and in data set [2] was 100% each time. In addition, in data set [3], the “Test Example 3: insecticidal effect” value is “A (Mortality 100%)”.
In the case of `CCN(C(=O)c1cccc(I)c1C(=O)NC(C)(C)CS(C)(=O)=O)c1ccc(S(F)(F)(F)(F)F)cc1` [2-24], the “Test Example 2: insecticidal effect” value in data set [1] is given as “A (Mortality 100%)”. For the same molecule, the “Test Example 1: insecticidal effect” value in data set [2] is on record as “A (Mortality 100%)”. Further, the “Test Example 3: insecticidal effect” value in data set [3] is “A (Mortality 100%)”.
As for `CCN(C(=O)c1cccc(I)c1C(=O)NC(C)(C)CSC)c1ccc(S(F)(F)(F)(F)F)cc1` [2-22], the “Test Example 2: insecticidal effect” value in data set [1] is on record as “A (Mortality 100%)”. In data set [2], the “Test Example 1: insecticidal effect” value is “A (Mortality 100%)”. In data set [3], the “Test Example 3: insecticidal effect” value is “A (Mortality 100%)”.
Consider `CSCC(C)NC(=O)c1c(I)cccc1C(=O)Nc1ccc(S(F)(F)(F)(F)F)cc1C` (stereo not drawn) [1-290], for which the “Test Example 2: insecticidal effect” value in data set [1] is listed as “A (Mortality 100%)”. Further, the “Test Example 1: insecticidal effect” value in data set [2] is “A (Mortality 100%)”. Besides, the “Test Example 3: insecticidal effect” value in data set [3] is recorded as “A (Mortality 100%)”.
Consider `CSCC(C)(C)NC(=O)c1c(I)cccc1C(=O)Nc1cccc(S(F)(F)(F)(F)F)c1Cl` [3-24], for which the “Test Example 2: insecticidal effect” value in data set [1] is “A (Mortality 100%)”. Also, the “Test Example 1: insecticidal effect” value in data set [2] is recorded as “A (Mortality 100%)”. Besides, the “Test Example 3: insecticidal effect” value in data set [3] was “A (Mortality 100%)”.
